One block for each compound: values may come before it.
Assays:
[1] = Solubility remark; format: physicochemical; details: remark in words
[2] = in vitro; details: human, Caco-2
[3] = Plasma and brain PK (IV / IP dosing)
[4] = BBB penetration (method not described); details: brain / plasma, iv, 5 mg/kg; read-out: unlabelled value after the PK data (matches brain/plasma AUClast ratio, 5mpk IV)
[5] = Plasma and brain PK (5 mg/kg IV); format: in vivo; details: female CD-1 mice; for Tmax / Cmax / AUC(0-t): mouse; for AUC(0-t): read-out: Plasma AUClast
[6] = Microsomes stability; format: in vitro ADME
[7] = brain, read-out: Brain Tmax (converted)

Compound: Cc1ccc(Cn2c(=N)n(C(CO)Cc3cc[nH]c(=O)c3)c3ccccc32)cc1 (centres unmarked) [ww4-89]
solubility [1]: solubility issue along with tauto- meriza- tion, only proton NMR and LC-MS

Compound: Cc1ccc(CC(CNC(=O)CF)n2c(=N)n(Cc3ccc(C)cc3)c3ccccc32)cc1 (centres unmarked) [ww5-308]
Papp A→B [2]: 3.05 ×10⁻⁶ cm/s
Papp B→A [2]: 8.72 ×10⁻⁶ cm/s

Compound: Br.Cc1ccc(C[C@@H](C(=O)N2CC3(COC3)C2)n2c(=N)n(C(C)c3ccc(C)cc3)c3ccccc32)cc1 (stereo partly drawn) [WZ-II-151, (2S)-2-(2-imino-3-(1-(p-tolyl)ethyl)-2,3-dihydro-1H-benzo[d]imidazol-1-yl)-1-(2-oxa-6-azaspiro[3.3]heptan-6-yl)-3-(p-tolyl)propan-1-one]
Cl_F_obs ([3]; Brain PK, 5 mg/Kg (5mpk) IV): 22.9 mL/min
Vz_F_obs ([3]; Brain PK, 5 mg/Kg (5mpk) IV): 8876 mL
Cl_F_obs ([3]; Plasma PK, 5 mg/Kg (5mpk) IV): 2.39 mL/min
Vz_F_obs ([3]; Plasma PK, 5 mg/Kg (5mpk) IV): 453 mL
AUC(0-t) ([3]; brain, iv, 5 mg/kg): 93.1 ng·h/mL
Cmax ([3]; brain, iv, 5 mg/kg): 22.7 ng/mL
Tmax ([3]; brain, iv, 5 mg/kg): 10 min
half-life ([3]; brain, iv, 5 mg/kg): 269 min
AUC(0-t) ([3]; plasma, iv, 5 mg/kg): 908 ng·h/mL
Cmax ([3]; plasma, iv, 5 mg/kg): 869 ng/mL
Tmax ([3]; plasma, iv, 5 mg/kg): 10 min
half-life ([3]; plasma, iv, 5 mg/kg): 131 min

Cl_F_obs ([3]; Brain PK, 5 mg/Kg (5mpk) IV): 9.5 mL/min
Vz_F_obs ([3]; Brain PK, 5 mg/Kg (5mpk) IV): 642 mL,
Cl_F_obs ([3]; Plasma PK, 5 mg/Kg (5mpk) IV): 3.86 mL/min
Vz_F_obs ([3]; Plasma PK, 5 mg/Kg (5mpk) IV): 221 mL
AUC(0-t) ([3]; brain, iv, 5 mg/kg): 209 ng·h/mL
Cmax ([3]; brain, iv, 5 mg/kg): 218 ng/mL
Tmax ([3]; brain, iv, 5 mg/kg): 10 min
half-life ([3]; brain, iv, 5 mg/kg): 47 min
AUC(0-t) ([3]; plasma, iv, 5 mg/kg): 518 ng·h/mL
Cmax ([3]; plasma, iv, 5 mg/kg): 651 ng/mL
Tmax ([3]; plasma, iv, 5 mg/kg): 10 min
half-life ([3]; plasma, iv, 5 mg/kg): 40 min
Compound: Br.Cc1ccc(CC(C(=O)N2CC(C#N)C2)n2c(=N)n(C(C)c3ccc(C)cc3)c3cccnc32)cc1 (single isomer, unassigned) [WZ-II-253]

Kp [4]: 1.13
Cl_F_obs ([3]; Brain PK, 5 mg/Kg (5mpk) IV): 1491.875 mL/min
Vz_F_obs ([3]; Brain PK, 5 mg/Kg (5mpk) IV): 286490.1 mL
Cl_F_obs ([3]; Brain PK, 10 mpk IP): 24837.56 mL/min
HL_Lambda_z ([3]; Brain PK, 10 mpk IP): 64.37 min
Vz_F_obs ([3]; Brain PK, 10 mpk IP): 2306714 mL
Cl_F_obs ([3]; Plasma PK, 5 mg/Kg (5mpk) IV): 1689.5566 mL/min
Vz_F_obs ([3]; Plasma PK, 5 mg/Kg (5mpk) IV): 101565.51 mL
Cl_F_obs ([3]; Plasma PK, 10 mpk IP): 3706.43 mL/min
HL_Lambda_z ([3]; Plasma PK, 10 mpk IP): 38.92 min
Vz_F_obs ([3]; Plasma PK, 10 mpk IP): 208114 mL,
AUC(0-t) ([3]; brain, ip, 10 mg/kg): 134 ng·h/mL
Cmax ([3]; brain, ip, 10 mg/kg): 77.8 ng/mL
Tmax ([3]; brain, ip, 10 mg/kg): 10 min
AUC(0-t) ([3]; brain, iv, 5 mg/kg): 1280 ng·h/mL
Cmax ([3]; brain, iv, 5 mg/kg): 1300 ng/mL
Tmax ([3]; brain, iv, 5 mg/kg): 10 min
half-life ([3]; brain, iv, 5 mg/kg): 133 min
AUC(0-t) ([3]; plasma, ip, 10 mg/kg): 1000 ng·h/mL
Cmax ([3]; plasma, ip, 10 mg/kg): 638 ng/mL
Tmax ([3]; plasma, ip, 10 mg/kg): 10 min
AUC(0-t) ([3]; plasma, iv, 5 mg/kg): 1130 ng·h/mL
Cmax ([3]; plasma, iv, 5 mg/kg): 1050 ng/mL
Tmax ([3]; plasma, iv, 5 mg/kg): 10 min
half-life ([3]; plasma, iv, 5 mg/kg): 41.7 min
Compound: Br.COCC(Cc1ccc(C)cc1)n1c(=N)n(C(C)c2ccc(C)cc2)c2cccnc21 (single isomer, unassigned) [WZ-II-149]

Brain AUClast ([5]; brain): 11291.545 ng·min/mL
Brain Cmax ([5]; brain): 15.29 ng/mL
Brain HL_Lambda_z ([5]; brain): 728.6 min
Tmax [5, 7]: 30 min
Cmax ([5]; plasma): 600 ng/mL
AUC(0-t) ([5]; plasma): 691 ng·h/mL
Tmax ([5]; plasma, read-out: Plasma Tmax): 10 min
Plasma Cl_F_obs ([5]; plasma): 2.72 mL/min
Plasma HL_Lambda_z ([5]; plasma): 230.4 min
Plasma Vz_F_obs ([5]; plasma): 904.1 mL
Compound: Cc1ccc(CC(CNC(=O)CO)n2c(=N)n([C@@H](C)c3ccc(C)cc3)c3ccccc32)cc1 (some centres unmarked) [ww5-189]

microsomal CLint [6]: 17 µL/min/mg
half-life ([6]; read-out: Microsomes stability T1/2): 19 min
Brain AUClast ([5]; brain): 38968.815 ng·min/mL
Brain Cmax ([5]; brain): 143.31 ng/mL
Brain HL_Lambda_z ([5]; brain): 134.1 min
Tmax [5, 7]: 30 min
Cmax ([5]; plasma): 841 ng/mL
AUC(0-t) ([5]; plasma): 986 ng·h/mL
Tmax ([5]; plasma, read-out: Plasma Tmax): 10 min
Plasma Cl_F_obs ([5]; plasma): 1.922 mL/min
Plasma HL_Lambda_z ([5]; plasma): 74.04 min
Plasma Vz_F_obs ([5]; plasma): 205.3 mL
Compound: COCC(Cc1ccc(C)cc1)n1c(=N)n(C(c2ccc(C)cc2)C2CC2)c2ccccc21 (single isomer, unassigned) [ww6-61]

Papp A→B [2]: 2.19 ×10⁻⁶ cm/s
Papp B→A [2]: 5.47 ×10⁻⁶ cm/s
efflux ratio [2]: 2.5
Compound: C/N=c1\n(Cc2ccc(C)cc2)c2ccccc2n1C(CO)Cc1ccc(C)cc1 (centres unmarked) [ww4-276]

— patent US11479560B2, “OX2R compounds” (Board of Regents, The University of Texas System, priority 2018, dated 2022)
